Measurements published in US20110269825A1, “Modified Thromboxane A2 Receptor Promoter Sequence” (priority 2008, published 2011).
Marks after values point to notes of the source that are not given here.

Tested on: HEL 92.1.7 cells
Test: Dual luciferase genetic reporter assay of promoter-directed luciferase expression in HEL cells
Format: cell-based, human
Conditions: for Decrease in luciferase expression relative to Prm1HΔ (−6320): site-directed mutation within Prm1HΔ; for Increase in luciferase activity relative to Prm1 (−8500): 5′ deletion or site-directed mutation of Prm1; for Decrease in luciferase expression relative to Prm1B (−7962): 5′ deletion or site-directed mutation of Prm1B; for Luciferase expression compared with another construct, in words: comparator as named in the words or parent fragment
Description: HEL and EA.hy 926 cells were co-transfected with the various pGL3Basic-recombinant plasmids (2 mg), encoding firefly luciferase, along with pRL-TK (200 ng), encoding renilla luciferase, using DMRIE-C® transfection reagent. HEK293, WI-38, and 1° hAoSMCs were co-transfected with the pGL3Basic-recombinant plasmids (2 mg), along with pRL-TK (200 ng), using Effectene transfection reagent. In all cases, cells co-transfected with pRL-TK (200 ng) in the presence of either the pGL3Control vector (firefly luciferase gene under the control of the SV40 promoter; 2 mg) or the promoter-less pGL3Basic empty vector (2 mg), which served as positive and negative controls, respectively. Firefly and renilla luciferase expression was assayed some 48 h post-transfection using the Dual-Luciferase Reporter Assay System™, as described (Coyle et al., 2005). Relative firefly to renilla luciferase activity (arbitrary units) was calculated as a ratio and was expressed in relative luciferase units (RLU). To investigate the effect of over-expression of exon 5 (+ or −) or KTS (+ or −) isoforms of WT1 on Prm1-directed gene expression, HEL cells were co-transfected with either pGL3b:Prm1 or pGL3b:Prm1D (1.5 μg) plus 200 ng of pRL-TK along with either pcDNA3:WT1 (+/+), pcDNA3:WT1 (+/−), pcDNA3:WT1 (−/+), pcDNA3:WT1 (−/−) (0.5 μg), or as a control, pcDNA3 (0.5 μg). Cells were harvested 48 h post-transfection and assayed for luciferase activity, as above, or subjected to western blot or RT-PCR analysis. The plasmids pcDNA3:WT1 (+/+), pcDNA3:WT1 (+/−), pcDNA3:WT1 (−/+) and pcDNA3:WT1 (−/−) were generously donated by Dr. Charles T. Roberts JR, Oregon National Primate Research Center, Oregon, USA and have been previously described (Tajinda et al., 1999). For PMA studies, approximately 32 h post-transfection, the medium was supplemented with PMA (100 nM), with PMA (100 nM) and PD98059 (10 μM) or, as a control, with vehicle [0.1% (v/v) DMSO]. After 16 h, cells were assayed for firefly and renilla luciferase using the Dual-Luciferase Reporter Assay System™ as previously described (Coyle et al., 2005). The plasmid pCMV5-NAB1, containing the entire coding sequence for NAB1, was generously donated by Dr. Gerald Thiel, University of Saarland Medical Center, Homburg, Germany, and has been described previously (Thiel et al., 2000). To investigate the effect of over-expression of NAB1 on the PMA-mediated induction of Prm1-directed gene expression, HEL cells were transiently co-transfected with pGL3b:Prm1 (2 μg) plus pRL-TK (200 ng) along with either pCMV5 (control) or pCMV:NAB1 (1 μg). Cells were harvested 48 h post-transfection and assayed for luciferase activity, as above.

Prm1HΔ^Sp1/Egr1(−6022)*: Prm1HΔ with Sp1/Egr1 element at −6022 mutated (SEQ ID NO:35) (DNA TCTGCCCTAACCCAGCCCT; expressed or natural sequence; listed as Homo sapiens)
Decrease in luciferase expression relative to Prm1HΔ (−6320) (HEL): 1.8 fold

Prm1HΔ^Sp1/Egr1(−6294)*: Prm1HΔ with Sp1/Egr1 element at −6294 mutated (SEQ ID NO:25) (DNA CGAGGAACATGGCCA; expressed or natural sequence; listed as Homo sapiens)
Decrease in luciferase expression relative to Prm1HΔ (−6320) (HEL): 1.3 fold

Prm1HΔ^NF-E2/AP1(−6080)*: Prm1HΔ with NF-E2/AP1 element at −6080 mutated (SEQ ID NO:33) (DNA CCAGACACACTCAGTTTCCCT; expressed or natural sequence; listed as Homo sapiens)
Decrease in luciferase expression relative to Prm1HΔ (−6320) (HEL): reduced luciferase activity

Prm1^GC*^(−8345): Prm1 with GC element at −8345 mutated (SEQ ID NO:9) (DNA TGCCCCTGACCCCAC; expressed or natural sequence; listed as Homo sapiens)
Increase in luciferase activity relative to Prm1 (−8500) (HEL): 2.0 fold

Prm1B^GATA(−7890)*: Prm1B with GATA element at −7890 mutated (SEQ ID NO:17) (DNA CTTGGTAGCTCAG; expressed or natural sequence; listed as Homo sapiens)
Decrease in luciferase expression relative to Prm1B (−7962) (HEL): 1.8 fold

Prm1I^GC*^(−6206): Prm1I with GC element at −6206 mutated (SEQ ID NO:29) (DNA CAGCGGCCTACACCCGT; expressed or natural sequence; listed as Homo sapiens)
Increase in luciferase activity relative to Prm1I (−6258) (HEL, 5′ deletion or mutation of Prm1I): 1.3 fold

Prm1B^Ets(−7870)*: Prm1B with Ets element at −7870 mutated (SEQ ID NO:19) (DNA GACAGGTGAAGTGGGGA; expressed or natural sequence; listed as Homo sapiens)
Decrease in luciferase expression relative to Prm1B (−7962) (HEL): 2.2 fold

Prm1^GC*^(−7831): Prm1 with GC element at −7831 mutated (SEQ ID NO:15) (DNA TCACTGTCCTCTCATCT; expressed or natural sequence; listed as Homo sapiens)
Increase in luciferase activity relative to Prm1 (−8500) (HEL): 2.1 fold

Prm1D^GC*^(−6717): Prm1D with GC element at −6717 mutated (SEQ ID NO:23) (DNA TCTGTCCTATCACCCCA; expressed or natural sequence; listed as Homo sapiens)
Increase in luciferase expression relative to Prm1D (−6848) (HEL, 5′ deletion or site-directed mutation of Prm1D): 4.8 fold

Prm1BΔGata/Ets^Ets(−7805)*: Prm1BΔGata/Ets with Ets element at −7805 mutated (SEQ ID NO:21) (DNA GCCCCACATCACCCTCC; expressed or natural sequence; listed as Homo sapiens)
Luciferase expression compared with another construct, in words (HEL): did not significantly affect the level of luciferase activity

Prm1HΔ^Sp1/Egr1(−6007)*: Prm1HΔ with Sp1/Egr1 element at −6007 mutated (SEQ ID NO:37) (DNA CCCTCGCAATACCCTCGG; expressed or natural sequence; listed as Homo sapiens)
Decrease in luciferase expression relative to Prm1HΔ (−6320) (HEL): 1.5 fold

Prm1HΔ^Sp1/Egr1(−6278)*: Prm1HΔ with Sp1/Egr1 element at −6278 mutated (SEQ ID NO:27) (DNA CGCAGGGTGTATGGGGCTG; expressed or natural sequence; listed as Homo sapiens)
Decrease in luciferase expression relative to Prm1HΔ (−6320) (HEL): reduced luciferase activity

Prm1^GC*^(−8281): Prm1 with GC element at −8281 mutated (SEQ ID NO:11) (DNA GCCCGGTTCCCGCCGGA; expressed or natural sequence; listed as Homo sapiens)
Increase in luciferase activity relative to Prm1 (−8500) (HEL): 1.9 fold

B1: Prm1D^WT-1(a, b, x)*: Prm1D-derived promoter with mutations at −6717, −6206 and −6800 (SEQ ID NO:124) (nucleic acid, listed as Homo sapiens)
DNA: GCTCCAAAGCCACCTCCGAGCCTCCTCAAGAGACCCTCCCATGCGATGCCACCACCCCAGCCCTCCCGGCTCACCTGCTCTGGGACCACCTTTCTCAGTCTGGCTGTGTCGTCTGGTGCACCCCCCATCCCTCTGTCCTATCACCCCACCCCTGGAAGGGGCCTCAAATATGTCCTGTATGTATTAAGCAGGGCATACTACTACTGTGTGCCGCGTTCCAGCGCACCCAGTGAATTTGGAGCCCTGGAGTCTGGGCGACCCCCGGGAGCCGATCCGCCTGGACCTGCCCCGCCCCCTCCAGGCCTTGGGTGCTGCCCAGATGGTGAATAATGCGGGCCTGGCGGCGGGAGCGCCGGGAAGAGGCCTGGCAGGGCGCTGGGCGGCTGGAGGGGCTGAGGCTCCCGAGGAAGCGCCCCTGCCACCCCTACGCGGGCCATTGCATCCCTGCCACCGGTGGCCTGGGGGTCCCAAGGGCGCCGCCTTCCCCAGAAGGCTGTAGGGTGTCCCGGCGTGCGGGGGGCACCCACTGACTCCAAGTCAGCCAGGCCCGGGCCCGAGGGGCGTGGCCAGCGCAGGGTGGGCGGGGCTGATGAGAGACAGCGGGAGACAGAGACTGGACGGAGAGAGCGAGCCGCGGGCTGCCAGCGGCCTACACCCGTCCCAGCTCGGCTTAGCCCCCGCGGACCCCTCCAGGCCGCGACCCCAGGGCGTCCTGTGCCGCCACGCCCTCCATCTGTGTGGGTCCTCTGCTGGGCCCGCCCCTGGTCACAGCCAGACTGACTCAGTTTCCCTGGGAGGTCCCGCTCGAGCCCGTCCTTCCCCTCCCTCTGCCCGCCCCCAGCCCTCGCCCCACCCTCGGCGCCCGCACATCTGCCTGCTCAGCTCCAGACGGCGCCCGGACCCCCGGGCGCGGGATCCAGCCAGGTGGGAGCCCCGCAGATGAGGTCTCTGAAG
Statistical significance of luciferase expression vs Prm1D^WT-1(a, b)* (HEL): *** (p<0.001) | Mean firefly relative to renilla luciferase activity (HEL cells, co-transfected with pRL-TK, 48 h post-transfection): 38.26 RLU | Luciferase expression compared with another construct, in words (HEL): an even stronger promoter for driving luciferase expression relative to Prm1D^WT1(a)*^(b)* | Statistical significance of luciferase expression vs Prm1D (HEL, ↑ = increase): *** (p<0.001)
